Reference: BigSolDB 2.1

## CC1=C[C@H](O)CC(C)(C)[C@H]1/C=C/C(C)=C/C=C/C(C)=C/C=C/C=C(C)/C=C/C=C(C)/C=C/C1=C(C)C[C@@H](O)CC1(C)C
In ethanol, 278.15 K
  solubility (mole fraction): 1.75e-05
In ethanol, 283.15 K
  solubility (mole fraction): 1.96e-05
In ethanol, 288.15 K
  solubility (mole fraction): 2.27e-05
In ethanol, 293.15 K
  solubility (mole fraction): 2.63e-05
In ethanol, 298.15 K
  solubility (mole fraction): 3.16e-05
In ethanol, 303.15 K
  solubility (mole fraction): 3.75e-05
In ethanol, 308.15 K
  solubility (mole fraction): 4.48e-05
In ethanol, 313.15 K
  solubility (mole fraction): 5.32e-05
In ethanol, 318.15 K
  solubility (mole fraction): 6.42e-05
In ethanol, 323.15 K
  solubility (mole fraction): 7.72e-05
In ethylene glycol, 278.15 K
  solubility (mole fraction): 2.68e-07
In ethylene glycol, 283.15 K
  solubility (mole fraction): 3.03e-07
In ethylene glycol, 288.15 K
  solubility (mole fraction): 3.48e-07
In ethylene glycol, 293.15 K
  solubility (mole fraction): 3.89e-07
In ethylene glycol, 298.15 K
  solubility (mole fraction): 4.43e-07
In ethylene glycol, 303.15 K
  solubility (mole fraction): 5.17e-07
In ethylene glycol, 308.15 K
  solubility (mole fraction): 6.12e-07
In ethylene glycol, 313.15 K
  solubility (mole fraction): 7.13e-07
In ethylene glycol, 318.15 K
  solubility (mole fraction): 8.45e-07
In ethylene glycol, 323.15 K
  solubility (mole fraction): 9.61e-07
In isopropanol, 278.15 K
  solubility (mole fraction): 9.74e-07
In isopropanol, 283.15 K
  solubility (mole fraction): 1.03e-06
In isopropanol, 288.15 K
  solubility (mole fraction): 1.1e-06
In isopropanol, 293.15 K
  solubility (mole fraction): 1.18e-06
In isopropanol, 298.15 K
  solubility (mole fraction): 1.27e-06
In isopropanol, 303.15 K
  solubility (mole fraction): 1.39e-06
In isopropanol, 308.15 K
  solubility (mole fraction): 1.51e-06
In isopropanol, 313.15 K
  solubility (mole fraction): 1.67e-06
In isopropanol, 318.15 K
  solubility (mole fraction): 1.86e-06
In isopropanol, 323.15 K
  solubility (mole fraction): 2.13e-06
In methanol, 278.15 K
  solubility (mole fraction): 2.31e-05
In methanol, 283.15 K
  solubility (mole fraction): 2.84e-05
In methanol, 288.15 K
  solubility (mole fraction): 3.77e-05
In methanol, 293.15 K
  solubility (mole fraction): 4.91e-05
In methanol, 298.15 K
  solubility (mole fraction): 6.72e-05
In methanol, 303.15 K
  solubility (mole fraction): 8.41e-05
In methanol, 308.15 K
  solubility (mole fraction): 0.000107
In methanol, 313.15 K
  solubility (mole fraction): 0.000134
In methanol, 318.15 K
  solubility (mole fraction): 0.000166
In methanol, 323.15 K
  solubility (mole fraction): 0.000207
